Results from article PMC3676778, “The Effect of the Aerial Part of Lindera akoensis on Lipopolysaccharides (LPS)-Induced Nitric Oxide Production in RAW264.7 Cells” (International Journal of Molecular Sciences, 2013).

Assays:
Type in all cases: cell-based, murine
[1] = Cell viability (MTT) of RAW264.7 cells in the presence of LPS; conditions: mouse, RAW264.7 macrophage cells, RAW 264.7 cells, 100 ng/mL LPS, mean ± SD of three replicates, read-out: Cytotoxicity IC50
Description: (§1) A murine macrophage cell line RAW264.7 (BCRC No. 60001) was purchased from the Bioresources Collection and Research Center (BCRC) of the Food Industry Research and Development Institute (Hsinchu, Taiwan). Cells were cultured in plastic dishes containing Dulbecco’s Modified Eagle Medium (DMEM, Sigma, St. Louis, MO, USA) supplemented with 10% fetal bovine serum (FBS, Sigma, St. Louis, MO, USA, USA) in a CO2 incubator (5% CO2 in air) at 37 °C and subcultured every 3 days at a dilution of 1:5 using 0.05% trypsin-0.02% EDTA in Ca^2+-, Mg^2+-free phosphate-buffered saline (DPBS).
(§2) Cells (2 × 105) were cultured in 96-well plate containing DMEM supplemented with 10% FBS for 1 day to become nearly confluent. Then cells were cultured with compounds 1–5 in the presence of 100 ng/mL LPS (lipopolysaccharide) for 24 h. After that, the cells were washed twice with DPBS and incubated with 100 μL of 0.5 mg/mL MTT for 2 h at 37 °C testing for cell viability. The medium was then discarded, and 100 μL dimethyl sulfoxide (DMSO) was added. After 30-min incubation, the absorbance at 570 nm was read using a microplate reader (Molecular Devices, Sunnyvale, CA, USA).
(§3) IC50 values were estimated using a non-linear regression algorithm (SigmaPlot 8.0; SPSS Inc., Chicago, IL, USA, 2002). Statistical evaluation was carried out by one-way analysis of variance (ANOVA followed by Scheffe’s multiple range tests).

[2] = test system: LPS-stimulated production of nitric oxide (NO) in RAW 264.7 cell; assay: Inhibition of LPS-induced NO (nitrite) production in RAW264.7 cells, Griess reaction; conditions: RAW 264.7 cells, LPS 100 ng/mL, 24 h, nitrite by Griess, mean ± SD of three replicates
From the text: NO, produced from L-arginine by NO synthase, has various biological actions, e.g., as a defense and regulatory molecule for homeostatic equilibrium. However, in pathophysiologic conditions, such as inflammation, there is an increased production of NO by inducible NO synthase (iNOS). Macrophages have been expected to be an origin of inflammation, because they contain various chemical mediators that may be responsible for several inflammatory stages. The inhibitory activity toward NO production, induced by lipopolysaccharides (LPS), by murine macrophage-derived RAW264.7 cells, was assayed.
as §1
NO production was indirectly assessed by measuring the nitrite levels in the cultured media and serum determined by a colorimetric method based on the Griess reaction. The cells were incubated with butanolides (0, 3.125, 6.25, 12.5, 25 and 50 μg/mL) in the presence of LPS (100 ng/mL) at 37 °C for 24 h. Then, cells were dispensed into 96-well plates, and 100 μL of each supernatant was mixed with the same volume of Griess reagent (1% sulfanilamide, 0.1% naphthyl ethylenediamine dihydrochloride and 5% phosphoric acid) and incubated at room temperature for 10 min; the absorbance was measured at 540 nm with a Micro-Reader (Molecular Devices Orleans Drive, Sunnyvale, CA, USA). Serum samples were diluted four times with distilled water and deproteinized by adding 1/20 volume of zinc sulfate (300 g/L) to a final concentration of 15 g/L. After centrifugation at 10,000× g for 5 min at room temperature, 100 μL supernatant was applied to a microtiter plate well, followed by 100 μL of Griess reagent. After 10 min of color development at room temperature, the absorbance was measured at 540 nm with a Micro-Reader. By using sodium nitrite to generate a standard curve, the concentration of nitrite was measured form absorbance at 540 nm.
as §3

RAW264.7 cells = assay: Cell viability (MTT) of RAW264.7 cells in the presence of LPS; conditions: RAW 264.7 cells, 100 ng/mL LPS, 24 h, mean ± SD of three replicates, read-out: Cytotoxicity IC50
Description: as §1, §2, §3

Row | IC50 ([2]; Mus musculus, RAW264.7) | Compound | IC50 at 24 h [1] | IC50 (RAW264.7 cells) | IC50 [2]
1 | 20.1 ± 0.3 µM | CCCCCCCCCC/C=C/[C@@H]1C(=O)O[C@@H](C)[C@H]1O [Compound 1, 3α-((E)-Dodec-1-enyl)-4β-hydroxy-5β-methyldihydrofuran-2-one] | 78 ± 5.1 µM |  | 
2 | 4.1 ± 0.1 µM | CCCCCCCCCCC/C=C1\C(=O)O[C@@H](C)[C@H]1O [Compound 2, 3-epilistenolide D1] | 32.6 ± 0.5 µM |  | 
3 | 4.5 ± 0.1 µM | CCCCCCCCCCC/C=C1/C(=O)O[C@@H](C)[C@H]1O [Compound 3, 3-epilistenolide D2] | 27.7 ± 1.6 µM |  | 
4 | 21.7 ± 0.4 µM | C#CCCCCCCCCC/C=C1\C(=O)O[C@@H](C)[C@@H]1O [Compound 4, (3Z,4α,5β)-3-(dodec-11-ynylidene)-4-hydroxy-5-methylbutanolide] | 139 ± 2.8 µM |  | 
5 | 33.4 ± 1 µM | C#CCCCCCCCCC/C=C1/C(=O)O[C@@H](C)[C@H]1O [Compound 5, (3E,4β,5β)-3-(dodec-11-ynylidene)-4-hydroxy-5-methylbutanolide] | 143 ± 1.9 µM |  | 
6 | 196 ± 4 µM | COc1cc(CC2COCC2Cc2ccc3c(c2)OCO3)ccc1O (stereo not shown) [Compound 6, linderinol] | > 292 µM |  | 
7 | 179 ± 12.1 µM | COc1cc(C[C@H]2COC(=O)[C@@H]2Cc2ccc(O)c(OC)c2)ccc1O [Compound 7, matairesinol] | > 279 µM |  | 
8 | 49.7 ± 4.5 µM | COc1cc([C@H]2OC[C@H]3[C@@H]2CO[C@@H]3c2cc(OC)c(O)c(OC)c2)cc(OC)c1O [Compound 8, syringaresinol] | > 239 µM |  | 
9 | 312 ± 14.1 µM | COc1cc(C2OCC3C(=O)OCC32)ccc1O (stereo not shown) [Compound 10, salicifoliol] | > 400 µM |  | 
10 | 62.5 ± 2.2 µM | COc1ccc(-c2oc3cc(O)cc(O)c3c(=O)c2OC2OC(C)C(OC(=O)C=Cc3ccc(O)cc3)C(O)C2O)cc1 [Compound 11, 4′-O-methylkaempferol 3-O-α-L-(4″-E-p-coumaroyl)rhamnoside] | > 84.5 µM |  | 
11 | 414 ± 6.9 µM | Oc1cc(O)c2c(c1)O[C@H](c1ccc(O)c(O)c1)[C@@H](O)C2 [Compound 14, catechin] | > 517 µM |  | 
12 | 352 ± 37.4 µM | Oc1cc(O)c2c(c1)O[C@H](c1ccc(O)c(O)c1)[C@H](O)C2 [Compound 15, epicatechin] | > 517 µM |  | 
13 | 183 ± 5.5 µM | COc1ccc2c(c1)c(CC(=O)O)c(C)n2C(=O)c1ccc(Cl)cc1 [indomethacin, reference compound] |  |  | 
14 |  | (+)-pinoresinol [Compound 9] |  | > 279 µM | 90.4 ± 8.6 µM

Row | Compound | IC50 ([2]; Mus musculus, RAW264.7) | IC50 at 24 h [1] | IC50 (RAW264.7 cells) | IC50 [2]
15 | C[C@@H]1O[C@@H](Oc2c(-c3ccc(O)cc3)oc3cc(O)cc(O)c3c2=O)[C@H](O)[C@H](O)[C@H]1OC(=O)/C=C\c1ccc(O)cc1 [Compound 12, kaempferol 3-O-α-L-(4″-Z-p-coumaroyl) rhamnoside] | 67.9 ± 1.9 µM | > 86.5 µM |  | 
16 | C[C@@H]1O[C@@H](Oc2c(-c3ccc(O)cc3)oc3cc(O)cc(O)c3c2=O)[C@H](O)[C@H](O)[C@H]1OC(=O)/C=C/c1ccc(O)cc1 [Compound 13, 4″-p-coumaroylafzelin] | 76.9 ± 7.3 µM | > 86.5 µM |  | 
